Earlier results in patent US20200330541A1, “COMPOSITIONS AND METHODS FOR MODULATING ENDOTHELIAL CELL MIGRATION AND ANGIOGENESIS” (University of Maine System Board of Trustees, priority 2017, published 2020).

Assays:
[1] = healthy humans after consumption of black currant
[2] = system: endothelial cell; details: through the JAK/STAT3 and MAPK signaling pathways
[3] = system: RAC1; details: smooth muscle cells, 24 hour exposure at 1 μmol/L and 100 μmol/L, compared to untreated cells
[4] = system: smooth muscle cell
[5] = system: HUVEC; details: 200 μM, 100 μM, and 50 μM

In the case of `C[C@@H]1O[C@@H](OC[C@H]2O[C@@H](Oc3cc4c(O)cc(O)cc4[o+]c3-c3cc(O)c(O)c(O)c3)[C@H](O)[C@@H](O)[C@@H]2O)[C@H](O)[C@H](O)[C@H]1O` [D3R, delphinidin, 3-O-β-rutinoside], the “concentration in the plasma” value [1] is given as 0.0737 ± 0.035 µM.
In the case of `O=c1cc(-c2ccc(O)cc2)oc2cc(O)cc(O)c12` [apigenin], the “endothelial cell migration, proliferation, and tubulogenesis” value [2] is given as “inhibited”.
For `O=C(O)/C=C/c1ccc(O)c(O)c1` [caffeic acid], the RAC1 protein synthesis [3] is given as “significantly decreased”.
For `O=c1oc2c(O)c(O)cc3c(=O)oc4c(O)c(O)cc1c4c23` [ellagic acid], the “endothelial cell migration, proliferation, and tubulogenesis” value [2] is listed as “inhibited”.
In the case of `OC[C@H]1O[C@@H](Oc2cc3c(O)cc(O)cc3[o+]c2-c2ccc(O)cc2)[C@H](O)[C@@H](O)[C@@H]1O` [pelargonidin-3-glucoside], the “cell proliferation and smooth muscle cell migration” value [4] is listed as “inhibitory effect”.
For “Delph inidin-3-(p-coumaroylrutinoside)-5-glucoside [nasunin]”, the HUVEC proliferation rate [5] is given as “inhibit”.
For epigallocatechin-3 gallate, the “endothelial cell migration, proliferation, and tubulogenesis” value [2] is given as “inhibited”.
